Assay results published in patent US20130029909A1, “TREATMENT OF CANCER” (priority 2009, published 2013).
Read-outs that look alike come from different tables or passages of the source.

Assays:
H1299 cells [1] = test: H1299 human NSCLC xenograft model in nu/nu mice; details: for median tumor volume (MTV) of survivors: D74, gemcitabine 120 mg/kg (five TFS), docetaxel 30 mg/kg (two D74 survivors); for tumor-free survival (TFS): 74 days post first treatment, CRLX101 10 mg/kg qwk×3, gemcitabine 120 mg/kg q3d×4, topotecan 12 mg/kg q4d×3
Description: (§1) Animals were randomly divided into seven groups and treatment was started on day-15 post implantation, when the mean tumor volume was approximately 115 mm^3.
(§2) Body weight was measured daily on Days 1-5, then twice weekly until the completion of the study. Tumor volume was measured twice weekly and each animal was euthanized when the calculated tumor volume reached the 2000 mm^3 endpoint, or on day-88 post implantation, whichever came first.

H1299 cells [2] = details: mouse, in vivo
Description: as §1, §2

[3] = test system: human ovarian carcinoma A2780 cells; details: 72 h, MTS
Description: The human ovarian carcinoma A2780 cells were obtained from the American Type Culture Collection. […] The medium was replaced with fresh medium containing the test compound at concentrations ranging from 0.01 nmol/L to 1 μmol/L. Triplicate wells per plate were treated at each concentration. Controls were vehicle-treated cells and medium only blank. […] MTS assay reagent was prepared by diluting CellTiter 96 AQueous One Solution (Promega) 5-fold into PBS/glucose (4.5 g/L). Cell culture medium was aspirated and 100 μL of MTS reagent were added to each well. Plates were incubated at 37° C. for 1 h. The plates were shaken for 5 min and the absorbance was measured at 485 nm using a [sequence]uor Plus plate reader (Tecan). The percentage of cell survival was calculated relative to untreated cells, and IC50s were estimated from the graphs of log dose (nmol/L) versus % cell survival (GraphPad Prizm).

SMILES | median tumor volume (MTV) of survivors (H1299 cells [1]) [mm3] | BW Nadir (lowest group mean body weight, as % change from Day 1) (H1299 cells [2]) [%] | tumor-free survival (TFS) (H1299 cells [1]) [%] | other results
CC(=O)O[C@@]12CO[C@@H]1C[C@H](O)[C@@]1(C)C(=O)[C@H](O)C3=C(C)[C@@H](OC(=O)[C@H](O)[C@@H](NC(=O)OC(C)(C)C)c4ccccc4)C[C@@](O)([C@@H](OC(=O)c4ccccc4)[C@H]21)C3(C)C [Docetaxel, docetaxel] | 302 |  |  | group mean body weight loss (H1299 cells [1]; docetaxel 30 mg/kg on D21): 9.3%; survival (H1299 cells [1]; docetaxel 30 mg/kg qwk×3, D74, no TFS): 20%; BW Nadir (lowest group mean body weight, as % change from Day 1) (H1299 cells [1]; same regimens as E168, '—' indicates that no decrease in mean body weight was observed): −9.3%
C#Cc1cccc(Nc2ncnc3cc(OCCOC)c(OCCOC)cc23)c1 [Erlotinib, erlotinib] |  | −2.9 |  | 
Nc1ccn([C@@H]2O[C@H](CO)[C@@H](O)C2(F)F)c(=O)n1 [Gemcitabine, gemcitabine] | 0 | −2.3 | 50 | 
CCc1c2c(nc3ccc(O)cc13)-c1cc3c(c(=O)n1C2)COC(=O)[C@]3(O)CC [SN-38, 20(S)-7-ethyl-10-hydroxycamptothecin] |  |  |  | IC50 [3]: 2.44 nM
CC[C@@]1(O)C(=O)OCc2c1cc1n(c2=O)Cc2cc3c(CN(C)C)c(O)ccc3nc2-1 [Topotecan, topotecan] |  | −0.6 | 10 | 
